Assay in all cases: NCI tumour cell line growth inhibition, 48 h
The subject of experiment [1] is A549 NSCLC.
Experiment [2] concerns ACHN renal.
Experiment [3] concerns CCRF-CEM leukemia.
For experiment [4], the system named is HOP-92 NSCLC.
In experiment [5] the test system is IGROV1 ovarian.
Experiment [6] concerns MALME-3M melanoma.
Experiment [7] deals with NCI-H460 lung.
Experiment [8] relates to NCI-H522 lung.
The subject of experiment [9] is RPMI-8226 leukemia.
Experiment [10] relates to SK-OV-3 ovarian.
Experiment [11] deals with SR leukemia.

Structures are written as SMILES.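 A five-concentration, 48-hour dose response in 96-well plates underlies each endpoint, interpolated linearly between surrounding concentrations. At the GI50, growth is halved. TGI: concentration producing complete growth inhibition.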 Bounds are passed on as bounds.

Drawing on PubChem BioAssay (NCI), this text covers TGI and GI50 for nine compounds.

As to `c1coc(CNc2ncnc3[nH]ncc23)c1`, the TGI in experiment [1], in experiment [2], in experiment [3], in experiment [4], in experiment [5] and in experiment [6] was more than 100 µM each time. Also, the TGI in experiment [7], in experiment [8], in experiment [9], in experiment [10] and in experiment [11] was more than 100 µM each time.
Take `Cc1cc(C)n(-c2nsc3ccccc23)n1`: the TGI in [1], in [2], in [3], in experiment [4], in experiment [5] and in experiment [7] was more than 100 µM each time. The TGI in [9] and in experiment [11] was more than 100 µM in each case.
Turning to `Cc1ccc2c(c1)C(=O)N(N(C)C)CC(=O)N2`, the TGI in experiment [1], in [2], in experiment [3], in experiment [4], in [5] and in experiment [6] was more than 100 µM in each case. The TGI in experiment [7], in [8], in experiment [9], in experiment [10] and in experiment [11] was more than 100 µM each time.
On to `CC(=O)c1ccc2c(c1)c1c(C)c3c[n+](C)ccc3c(C)c1n2C`, for which the TGI is more than 100 µM in experiment [1]; more than 46.3 µM in experiment [3]; 69.2 µM in [4]; more than 100 µM in [5]; 33.7 µM in experiment [6]; 15.1 µM in experiment [7]. The TGI is more than 100 µM in experiment [8], 30.5 µM in experiment [9] and more than 87 µM in [10].
`CSc1nc(NC2OCC(O)C(O)C2O)c(N)c(=O)[nH]1` (stereo not drawn): the TGI in [1], in [3], in [4], in experiment [5], in [6] and in [7] was more than 100 µM throughout. The TGI in experiment [8], in experiment [9] and in [10] was more than 100 µM throughout.
For `Fc1ccc(C2CC(c3cccc(Nc4ccncc4)c3)=NN2c2ccc(Cl)cc2)cc1` (stereo not drawn), the GI50 in experiment [2] is 1.61 µM; in experiment [3] it was 3.12 µM; in [5] it was 1.78 µM; in experiment [6], 1.59 µM; in [7], 1.79 µM; in [8] it was 1.78 µM. The figures for the GI50 in experiment [10] and in experiment [11] were 1.98 µM and 1.79 µM, respectively. Besides, the TGI stood at 2.96 µM in [2]; 9.87 µM in [3]; 3.37 µM in experiment [5]; 3.1 µM in [6]; 3.35 µM in experiment [7]; 3.68 µM in [8]. For the same compound, the TGI in [10] turned out to be 4.53 µM; in experiment [11] it was 4.23 µM.
On to `N#CN=[N+]([O-])c1ccc(C(=O)O)cc1`, for which the TGI in [1] was more than 100 µM; in experiment [2], 32.7 µM; in experiment [3], 51.9 µM; in [4], 40.4 µM; in experiment [5] it was more than 100 µM; in [7], more than 100 µM. For the same compound, the TGI in [8] is 40.7 µM; in [9] it was 35.3 µM; in experiment [10], 33 µM.
As for `Brc1ccc(C2CC(c3cccc4ccccc34)=Nc3ccccc3S2)cc1` (stereo not drawn), the TGI in [1] was more than 100 µM; in experiment [2], more than 100 µM; in experiment [3], 81.6 µM; in experiment [4], more than 100 µM; in experiment [5] it was more than 100 µM; in experiment [7] it was more than 100 µM. The TGI is more than 100 µM in experiment [8], 51.6 µM in experiment [9], more than 100 µM in experiment [10] and more than 100 µM in [11].
Take `Cc1cc2c(cc1C)OC(=O)CC2`: the TGI in [1], in experiment [2], in [3], in experiment [4], in [5] and in experiment [6] was more than 100 µM throughout. Also, the TGI in experiment [7], in experiment [8], in experiment [9] and in experiment [11] was more than 100 µM each time.
